System: increase in uterus weight by stimulus with estradiol
Assay: Anti-estrogenic activity via oral administration (inhibition of estradiol-stimulated increase in uterus weight in ovariectomized mice)
Assay type: in vivo
Conditions: ovariectomized ICR mice, 17β-estradiol-benzoate 0.1 μg/day s.c. for 3 days, test compound 10 mg/kg p.o., once a day, uterus weighed 24 hours after last administration
Description: Oral anti-estrogenic activity in vivo of the test compound was determined according to the method described hereinafter. […] In this experiment, the test compounds and the control compound were suspended in 5% arabic gum solution and orally administered for 3 days, once a day. After 24 hours from the last administration, the test animal was sacrificed and uterus was removed and weighed.

C[C@]1(c2ccc(O)cc2)CCc2cc(O)ccc2C1CCCCCCCCC[S+]([O-])CCCC(F)(F)C(F)(F)F (some centres unmarked) [ZM189154, reference compound]
Inhibition (%) of the increase in uterus weight by estradiol: 41.7%

C[C@]1(c2ccc(O)cc2)CSc2cc(O)ccc2[C@H]1CCCCCCCCCC(CCCCCCC(F)(F)C(F)(F)F)C(=O)O (stereo partly drawn) [Example 2, (3′RS,4′RS)-11-[7-hydroxy-3-(4-hydroxyphenyl)-3-methylthiochroman-4-yl]-2-(7,7,8,8,8-pentafluorooctyl)undecanoic acid]
Inhibition (%) of the increase in uterus weight by estradiol: 62.0%

C[C@]1(c2ccc(O)cc2)COc2cc(O)ccc2[C@H]1CCCCCCCCCC(CCCCCCC(F)(F)C(F)(F)F)C(=O)O (stereo partly drawn) [Example 3, (3′RS,4′RS)-11-[7-hydroxy-3-(4-hydroxyphenyl)-3-methylchroman-4-yl]-2-(7,7,8,8,8-pentafluorooctyl)undecanoic acid]
Inhibition (%) of the increase in uterus weight by estradiol: 85.1%

C[C@]1(c2ccc(O)cc2)COc2cc(O)ccc2[C@H]1CCCCCCCCC(CCCCCCC(F)(F)C(F)(F)F)C(=O)O (stereo partly drawn) [Example 4, (3′RS,4′RS)-10-[7-hydroxy-3-(4-hydroxyphenyl)-3-methylchroman-4-yl]-2-(7,7,8,8,8-pentafluorooctyl)decanoic acid]
Inhibition (%) of the increase in uterus weight by estradiol: 71.4%

C[C@]1(c2ccc(O)cc2)CSc2cc(O)ccc2[C@H]1CCCCCCCCC(CCCCCCC(F)(F)C(F)(F)F)C(=O)O (stereo partly drawn) [Example 1, (3′RS,4′RS)-10-[7-hydroxy-3-(4-hydroxyphenyl)-3-methylthiochroman-4-yl]-2-(7,7,8,8,8-pentafluorooctyl)decanoic acid]
Inhibition (%) of the increase in uterus weight by estradiol: 78.9%

From patent US6555571B2, “3-methyl -chromane or thiochromane derivatives” (Chugai Seiyaku Kabushiki Kaisha, priority 1999, dated 2003)
